A word on the solubility: it is how much of the substance goes into solution per volume. A low value points to a poorly soluble substance. Usually Solubility stands for the concentration that dissolves in the medium under given conditions. In general, half-life refers to how long it takes for the measured level to halve.

The nature of series [1]: In vitro stability in rat plasma (LC/MS-MS detection). It is filed as in vitro ADME, Wistar rats. As to conditions: Wistar rat plasma, 37° C. The protocol: A defined plasma volume (e.g. 2.0 ml) is warmed to 37° C. in a closed test tube in a waterbath. After the intended temperature is reached, a defined amount of the test substance is added as solution (volume of the solvent not more than 2% of the plasma volume). The plasma is shaken and a first sample (50-100 μl) is immediately taken. Then 4-6 further aliquots are taken in the period up for 2 h after the start of incubation.
Acetonitrile is added to the plasma samples to precipitate proteins. After centrifugation, the test substance and, where appropriate, known cleavage products of the test substance in the supernatant are determined quantitatively with a suitable LC/MS-MS method.
The concentrations c of the compound of Example 6 and of the active ingredient compound (A) liberated therefrom determined at various times in the plasma of Wistar rats are shown in Table 3:
The concentrations c of the compound of Example 13 and of the active ingredient compound (A) liberated therefrom determined at various times in the plasma of Wistar rats are shown in Table 4: […]

Series [2] is described as follows: Stability in buffer at various pH values (HPLC, 37° C., 24 h). It is filed as physicochemical. The protocol:
0.3 mg of the test substance is weighed into a 2 ml HPLC vial and 0.5 ml of acetonitrile is added. The substance is dissolved by putting the sample vessel in an ultrasonic bath for about 10 seconds. Then 0.5 ml of the respective buffer solution is added, and the sample is again treated in the ultrasonic bath.
• pH 4.0:1 liter of Millipore water is adjusted to pH 4.0 with 1 N hydrochloric acid; • pH 7.4: 90 g of sodium chloride, 13.61 g of potassium dihydrogen phosphate and 83.35 g of 1 M sodium hydroxide solution are made up to 1 liter with Millipore water and then diluted 1:10.
5 μl portions of the test solution are analysed by HPLC for their content of unchanged test substance every hour over a period of 24 hours at 37° C. The percentage areas of the appropriate peaks are used for quantification.
Agilent 1100 with DAD (G1314A), binary pump (G1312A), autosampler (G1329A), column oven (G1316A), thermostat (G1330A); column: Kromasil 100 C18, 125 mm×4.6 mm, 5 μm; column temperature: 30° C.; eluent A: water+5 ml of perchloric acid/liter, eluent B: acetonitrile.
The ratios of the peak areas (F) at the respective time points in relation to the peak areas at the starting time are shown in Table 2 for representative exemplary embodiments: […]

Series [3] in a line: Determination of the solubility (suspension shaken 24 h at room temperature, HPLC). The class given is physicochemical. As to conditions: for solubility at 24 h: thermodynamic from solid. As for the experimental part: […] This suspension is shaken at room temperature for 24 h. After ultracentrifugation at 224 000 g for 30 min, the supernatant is diluted with DMSO and analysed by HPLC. A two-point calibration plot of the test compound in DMSO is used for quantification.
Agilent 1100 with DAD (G1315A), quat. pump (G1311A), autosampler CTC HTS PAL, degasser (G1322A) and column thermostat (G1316A); column: Zorbax Extend-C18 3.5μ; temperature: 40° C.; eluent A: water+5 ml of perchloric acid/liter, eluent B: acetonitrile; flow rate: 0.7 ml/min; gradient: 0-0.5 min 98% A, 2% B; ramp 0.5-4.5 min 10% A, 90% B; 4.5-6 min 10% A, 90% B; ramp 6.5-6.7 min 98% A, 2% B; 6.7-7.5 min 98% A, 2% B.

Series [4] is described as follows: In vitro stability in rat plasma (HPLC detection). As to conditions: 37° C., read-out: half-life of degradation to liberate compound (A). The class given is in vitro ADME. The protocol: 1 mg of substance is dissolved in 1.25 ml of dimethyl sulphoxide. Then 1.25 ml of water are added. 500 μl of this sample solution are mixed with 500 μl of rat plasma at 37° C. and shaken. A first sample (10 μl) is immediately taken for HPLC analysis. In the period up to 2 h after the start of incubation, further aliquots are taken after 2, 5, 10, 30, 60 and 90 min, and the content of the respective test substance and of the active ingredient compound (A) liberated therefrom is determined.
Agilent 1100 with DAD (G1314A), binary pump (G1312A), autosampler (G1329A), column oven (G1316A), thermostat (G1330A); column: Kromasil 100 C18, 250 mm×4.6 mm, 5 μm; column temperature: 30° C.; eluent A: water+5 ml of perchloric acid/liter, eluent B: acetonitrile.

The mark [5] stands for this setting: dilute hydrochloric acid (pH 4), pH 4, aqueous buffer, room temperature, 24 h.
[6] abbreviates: buffer pH 4, 37° C., hydrobromide.
The mark [7] stands for this setting: buffer pH 4, 37° C., hydrochloride.
The mark [8] stands for this setting: 5% dextrose adjusted to pH 4 with hydrochloric acid, pH 4, saline or isotonic.

Counter-ions that a name gives are not always drawn.

As for `CC(C)[C@@H](N)C(=O)OCC(=O)N(C[C@H]1CN(c2ccc(N3CCOCC3=O)cc2)C(=O)O1)C(=O)c1ccc(Cl)s1` [Example 6, 2-[[(5-Chloro-2-thienyl)carbonyl]({(5S)-2-oxo-3-[4-(3-oxomorpholin-4-yl)phenyl]-1,3-oxazolidin-5-yl}methyl)amino]-2-oxoethyl D-valinate hydrochloride], the “c of test substance” value in series [1] (incubation time 0 h) came to 0.403 mg/L; in series [1] (incubation time 0.08 h), 0.0756 mg/L; in series [1] (incubation time 0.17 h), 0.0079 mg/L. For the same compound, the “% test substance after 4 h [F(t = 4 h) × 100/F(t = 0 h)]” value (“% test substance after 4 h” below) in series [2] (buffer pH 4, 37° C.) is recorded as 100%; in series [2] (buffer pH 7.4, 37° C.), 90%. In addition, the “% Test substance after 24 h [F(t = 24 h) × 100/F(t = 0 h)]” value (“% Test substance after 24 h” for short) in series [2] (buffer pH 4, 37° C.) stood at 98%; in series [2] (buffer pH 7.4, 37° C.), 59%. The same compound returned a solubility at 24 h in series [3] (setting [5]) of 860 µg/mL.
As to `CC(C)[C@H](N)C(=O)SCC(=O)N(C[C@H]1CN(c2ccc(N3CCOCC3=O)cc2)C(=O)O1)C(=O)c1ccc(Cl)s1` [Example 11, S-{2-[[(5-Chloro-2-thienyl)carbonyl]({(5S)-2-oxo-3-[4-(3-oxomorpholin-4-yl)phenyl]-1,3-oxazolidin-5-yl}methyl)amino]-2-oxoethyl}(2S)-2-amino-3-methylbutanethioate hydrochloride], the “% test substance after 4 h” value in series [2] (buffer pH 7.4, 37° C., hydrochloride) is on record as 10%. The same compound showed a Solubility in series [3] (dilute hydrochloric acid (pH 4), room temperature, 24 h, hydrochloride) of 960 µg/mL.
As to `CNCCCC(=O)N(C[C@H]1CN(c2ccc(N3CCOCC3=O)cc2)C(=O)O1)C(=O)c1ccc(Cl)s1` [Example 12, 5-Chloro-N-[4-(methylamino)butanoyl]-N-({(5S)-2-oxo-3-[4-(3-oxomorpholin-4-yl)phenyl]-1,3-oxazolidin-5-yl}methyl)thiophene-2-carboxamide hydrobromide], the “% test substance after 4 h” value in series [2] (setting [6]) came out at 100%; in series [2] (buffer pH 7.4, 37° C.), 0%. For the same compound, the “% Test substance after 24 h” value in series [2] (setting [6]) is 98%; in series [2] (buffer pH 7.4, 37° C.), 0%. Also, the solubility at 24 h in series [3] (setting [5]) was 350 µg/mL.
As for `CNCCCC(=O)N(C[C@H]1CN(c2ccc(N3CCOCC3=O)cc2)C(=O)O1)C(=O)c1ccc(Cl)s1` [Example 13, 5-Chloro-N-[4-(methylamino)butanoyl]-N-({(5S)-2-oxo-3-[4-(3-oxomorpholin-4-yl)phenyl]-1,3-oxazolidin-5-yl}methyl)thiophene-2-carboxamide hydrochloride], the half-life at 0.2 mg/ml in series [4] was < 2 min. The “c of test substance” value in series [1] (incubation time 0 h) worked out at 0.5 mg/L. For the same compound, in series [2] (setting [7]), the “% test substance after 4 h” value was 99% and the “% Test substance after 24 h” value is listed as 91%. In series [3] (setting [8]), this compound came in with a solubility at 24 h of 2700 µg/mL.
Consider `CNCCCCC(=O)N(C[C@H]1CN(c2ccc(N3CCOCC3=O)cc2)C(=O)O1)C(=O)c1ccc(Cl)s1` [Example 17, 5-Chloro-N-[5-(methylamino)pentanoyl]-N-({(5S)-2-oxo-3-[4-(3-oxomorpholin-4-yl)phenyl]-1,3-oxazolidin-5-yl}methyl)thiophene-2-carboxamide hydrochloride], for which the half-life at 0.2 mg/ml in series [4] was < 2 min. Moreover, in series [2] (setting [7]), the “% test substance after 4 h” value stood at 83% and the “% Test substance after 24 h” value is listed as 55%.
On to `NCCCCC(=O)N(C[C@H]1CN(c2ccc(N3CCOCC3=O)cc2)C(=O)O1)C(=O)c1ccc(Cl)s1` [Example 20, N-(5-Aminopentanoyl)-5-chloro-N-({(5S)-2-oxo-3-[4-(3-oxomorpholin-4-yl)phenyl]-1,3-oxazolidin-5-yl}methyl)thiophene-2-carboxamide hydrochloride], for which the half-life at 0.2 mg/ml in series [4] was < 2 min. Also, in series [2] (buffer pH 4, 37° C.), the “% test substance after 4 h” value is on record as 98% and the “% Test substance after 24 h” value worked out at 90%. Further, in series [2] (buffer pH 7.4, 37° C.), the “% test substance after 4 h” value came to 0% and the “% Test substance after 24 h” value worked out at 0%. Further, the solubility at 24 h in series [3] (setting [8]) was > 3000 µg/mL.
For the compound `NCCCCCC(=O)N(C[C@H]1CN(c2ccc(N3CCOCC3=O)cc2)C(=O)O1)C(=O)c1ccc(Cl)s1` [Example 21, N-(6-Aminohexanoyl)-5-chloro-N-({(5S)-2-oxo-3-[4-(3-oxomorpholin-4-yl)phenyl]-1,3-oxazolidin-5-yl}methyl)thiophene-2-carboxamide hydrochloride], in series [2] (buffer pH 4, 37° C.), the “% test substance after 4 h” value stood at 100% and the “% Test substance after 24 h” value is 100%. Moreover, in series [2] (buffer pH 7.4, 37° C.), the “% test substance after 4 h” value is 92% and the “% Test substance after 24 h” value turned out to be 66%. Further, the solubility at 24 h in series [3] (setting [8]) was > 3000 µg/mL.
For the compound `CCCCNCCCC(=O)N(C[C@H]1CN(c2ccc(N3CCOCC3=O)cc2)C(=O)O1)C(=O)c1ccc(Cl)s1` [Example 22, N-[4-(Butylamino)butanoyl]-5-chloro-N-({(5S)-2-oxo-3-[4-(3-oxomorpholin-4-yl)phenyl]-1,3-oxazolidin-5-yl}methyl)thiophene-2-carboxamide hydrochloride], the half-life at 0.2 mg/ml in series [4] was < 2 min. In addition, in series [2] (buffer pH 4, 37° C.), the “% test substance after 4 h” value is on record as 100% and the “% Test substance after 24 h” value was determined as 98%. In addition, the solubility at 24 h in series [3] (setting [8]) was > 3000 µg/mL.
For the compound `NCCOCC(=O)N(C[C@H]1CN(c2ccc(N3CCOCC3=O)cc2)C(=O)O1)C(=O)c1ccc(Cl)s1` [Example 23, N-[(2-Aminoethoxy)acetyl]-5-chloro-N-({(5S)-2-oxo-3-[4-(3-oxomorpholin-4-yl)phenyl]-1,3-oxazolidin-5-yl}methyl)thiophene-2-carboxamide hydrochloride], the half-life at 0.2 mg/ml in series [4] was < 2 min.
